9 compounds from the SangsterLogP compilation can be followed below.

The data set can be described thus: method code SF-AS, from DOI: 10.2298/ciceq100329044p. Conditions: pH 7.4.

As to `Cc1ccc(Cn2c(C)nc3ccccc32)cc1`, the logD is 4.01. Next, `Nc1nc2ccccc2n1C(=O)c1ccccc1`: 2.9; `Cc1ccc(C(=O)n2c(C)nc3ccccc32)cc1`: 3.87; `Cc1nc2ccccc2n1Cc1ccc(Cl)cc1`: 4.07. The result for `Cc1nc2ccccc2n1C(=O)c1ccccc1` reads 3.38.

Consider `Nc1nc2ccccc2n1C(=O)c1ccc(Cl)cc1`, for which the logD worked out at 3.45.

On to `Cc1nc2ccccc2n1C(=O)c1ccc(Cl)cc1`, for which the logD is 3.95. In turn, `Cc1nc2ccccc2n1Cc1ccccc1` registered a logD of 3.51. The result for `Cc1ccc(C(=O)n2c(N)nc3ccccc32)cc1` reads 3.35.

For orientation: logD means lipophilicity at a set pH, counting ionised and neutral species. Read a high logD as higher lipophilicity.
